From article PMC12147714 (FEMS Microbiology Letters, 2025)

Assays:
[1] = set-up: method as in van Eijkeren et al. 2016; details: 30 mg/kg dose; ref van Eijkeren et al. 2016; cited from earlier work
MBL-producing E. coli = details: high concentrations, ref Cheminet et al. 2020, cited from earlier work
[2] = system: MBL-producers in isogenic strains of P. aeruginosa; set-up: method as in Bouvier et al. 2025; details: ref Bouvier et al. 2025, cited from earlier work
IMP-10 = IMP-10 (Serratia marcescens, UniProt P52699, V49F); assay: IC50, inhibition of cephalothin hydrolysis by crude extract; details: IMP-10; 100 μM cephalothin, pH 7.0
IMP-13 = IMP-13 (Pseudomonas aeruginosa, UniProt Q7WYA8); assay: as above; details: IMP-13; 100 μM cephalothin, pH 7.0
NDM-1 = NDM-1 (Klebsiella pneumoniae, UniProt C7C422); assay: as above; details: 100 μM cephalothin, pH 7.0
SPM-1 = SPM-1 (Pseudomonas aeruginosa, UniProt Q8G9Q0); assay: as above; details: SPM-1; 100 μM cephalothin, pH 7.0
VIM-1 = VIM-1 (Pseudomonas aeruginosa, UniProt A0A0F7KYQ8); assay: as above; details: VIM-1; 100 μM cephalothin, pH 7.0
VIM-2 = VIM-2 (Escherichia coli, UniProt Q5U7L7); assay: as above; details: VIM-2; 100 μM cephalothin, pH 7.0
[3] = system: PAO1 TnoprD producing IMP-1; assay: MIC and checkerboard by broth microdilution, recombinant strain; format: cell-based, Pseudomonas aeruginosa; details: IMP-1 TnoprD; antibiotic alone
Procedure: (§1) The fractional inhibitory concentration index (FICI) was calculated and interpreted as follows: the MIC of drug A in combination/the MIC of drug A alone + the MIC of drug B in combination/the MIC drug B alone. FICI ≤ 0.5 = synergy; 0.5 < FICI ≤ 1 = additive; FICI 1 < FICI < 2 = indifference, and FICI ≥ 2 = antagonism. All susceptibility testing/checkerboard assays were performed in triplicate.

[4] = system: PAO1 TnoprD producing NDM-1; assay: as above; format: cell-based, Pseudomonas aeruginosa; details: NDM-1 TnoprD; antibiotic alone
Procedure: as §1

[5] = system: PAO1 TnoprD producing VIM-1; assay: as above; format: cell-based, Pseudomonas aeruginosa; details: VIM-1 TnoprD; antibiotic alone
Procedure: as §1

PAO1 producing IMP-10 = assay: as above; format: cell-based, Pseudomonas aeruginosa; details: antibiotic alone
Procedure: as §1

PAO1 producing NDM-1 = assay: as above; format: cell-based, Pseudomonas aeruginosa; details: antibiotic alone
Procedure: as §1

[6] = system: PAO1 TnoprD producing IMP-10; assay: as above; format: cell-based, Pseudomonas aeruginosa; details: IMP-10 TnoprD; antibiotic alone
From the text: (§2) Pseudomonas aeruginosa isolate, PAO1, was used alongside its isogenic counterpart, PAO1 TnoprD, which lacks a functional OprD porin (Held et al. [2012]). β-lactamases, blaIMP-1, blaIMP-10, blaIMP-13, blaNDM-1, blaSPM-1, blaVIM-1, blaVIM-2, and blaKPC-2, had previously been cloned into the pUCP24 shuttle vector (Bouvier et al. [2025]), and were transformed by electroporation into both PAO1 and PAO1 TnoprD.
as §1, with “. MICs of DMSA, CAZ, FEP and checkerboards for the combinations, CAZ/DMSA and FEP/DMSA, were performed for all clinical isolates. All susceptibility testing results were interpreted according to CLSI guidelines (CLSI [2023]). The” for “The”

[7] = system: PAO1 TnoprD producing IMP-13; assay: as above; format: cell-based, Pseudomonas aeruginosa; details: IMP-13 TnoprD; antibiotic alone
From the text: as §2
as §1, with “. MICs of DMSA, CAZ, FEP and checkerboards for the combinations, CAZ/DMSA and FEP/DMSA, were performed for all clinical isolates. All susceptibility testing results were interpreted according to CLSI guidelines (CLSI [2023]). The” for “The”

[8] = system: PAO1 TnoprD producing SPM-1; assay: as above; format: cell-based, Pseudomonas aeruginosa; details: SPM-1 TnoprD; antibiotic alone
From the text: as §2
as §1, with “. MICs of DMSA, CAZ, FEP and checkerboards for the combinations, CAZ/DMSA and FEP/DMSA, were performed for all clinical isolates. All susceptibility testing results were interpreted according to CLSI guidelines (CLSI [2023]). The” for “The”

[9] = system: PAO1 TnoprD producing VIM-2; assay: as above; format: cell-based, Pseudomonas aeruginosa; details: VIM-2 TnoprD; antibiotic alone
From the text: as §2
as §1, with “. MICs of DMSA, CAZ, FEP and checkerboards for the combinations, CAZ/DMSA and FEP/DMSA, were performed for all clinical isolates. All susceptibility testing results were interpreted according to CLSI guidelines (CLSI [2023]). The” for “The”

PAO1 producing IMP-13 = assay: as above; format: cell-based, Pseudomonas aeruginosa; details: antibiotic alone
From the text: as §2
as §1, with “. MICs of DMSA, CAZ, FEP and checkerboards for the combinations, CAZ/DMSA and FEP/DMSA, were performed for all clinical isolates. All susceptibility testing results were interpreted according to CLSI guidelines (CLSI [2023]). The” for “The”

PAO1 producing IMP-1 = assay: as above; format: cell-based, Pseudomonas aeruginosa; details: antibiotic alone
From the text: as §2
as §1, with “. MICs of DMSA, CAZ, FEP and checkerboards for the combinations, CAZ/DMSA and FEP/DMSA, were performed for all clinical isolates. All susceptibility testing results were interpreted according to CLSI guidelines (CLSI [2023]). The” for “The”

PAO1 producing SPM-1 = assay: as above; format: cell-based, Pseudomonas aeruginosa; details: antibiotic alone
From the text: as §2
as §1, with “. MICs of DMSA, CAZ, FEP and checkerboards for the combinations, CAZ/DMSA and FEP/DMSA, were performed for all clinical isolates. All susceptibility testing results were interpreted according to CLSI guidelines (CLSI [2023]). The” for “The”

PAO1 producing VIM-1 = assay: as above; format: cell-based, Pseudomonas aeruginosa; details: antibiotic alone
From the text: as §2
as §1, with “. MICs of DMSA, CAZ, FEP and checkerboards for the combinations, CAZ/DMSA and FEP/DMSA, were performed for all clinical isolates. All susceptibility testing results were interpreted according to CLSI guidelines (CLSI [2023]). The” for “The”

PAO1 producing VIM-2 = assay: as above; format: cell-based, Pseudomonas aeruginosa; details: antibiotic alone
From the text: as §2
as §1, with “. MICs of DMSA, CAZ, FEP and checkerboards for the combinations, CAZ/DMSA and FEP/DMSA, were performed for all clinical isolates. All susceptibility testing results were interpreted according to CLSI guidelines (CLSI [2023]). The” for “The”

IMP-13, sequence (Q7WYA8 21-246): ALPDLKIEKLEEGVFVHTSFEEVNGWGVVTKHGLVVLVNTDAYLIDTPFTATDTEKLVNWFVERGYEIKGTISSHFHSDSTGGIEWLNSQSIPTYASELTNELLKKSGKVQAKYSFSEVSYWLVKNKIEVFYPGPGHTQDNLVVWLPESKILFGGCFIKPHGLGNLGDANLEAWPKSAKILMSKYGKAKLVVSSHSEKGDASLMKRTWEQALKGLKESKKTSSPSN
SPM-1, sequence (Q8G9Q0 entry or part of it): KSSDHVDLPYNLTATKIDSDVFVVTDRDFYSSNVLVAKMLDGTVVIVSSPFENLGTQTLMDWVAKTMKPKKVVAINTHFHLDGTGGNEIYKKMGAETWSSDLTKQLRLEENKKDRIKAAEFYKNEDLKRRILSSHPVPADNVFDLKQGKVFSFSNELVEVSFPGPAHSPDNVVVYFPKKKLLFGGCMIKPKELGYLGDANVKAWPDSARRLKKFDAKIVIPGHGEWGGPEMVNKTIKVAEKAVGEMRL
NDM-1, sequence (C7C422 29-270 limits assumed): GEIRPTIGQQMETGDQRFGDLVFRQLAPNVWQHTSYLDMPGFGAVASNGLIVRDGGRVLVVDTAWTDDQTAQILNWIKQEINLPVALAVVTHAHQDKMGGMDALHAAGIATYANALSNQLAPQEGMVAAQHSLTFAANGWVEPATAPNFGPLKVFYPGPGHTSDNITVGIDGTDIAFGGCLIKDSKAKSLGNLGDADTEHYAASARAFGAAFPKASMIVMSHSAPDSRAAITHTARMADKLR
IMP-10, sequence (P52699 19-246 V49F): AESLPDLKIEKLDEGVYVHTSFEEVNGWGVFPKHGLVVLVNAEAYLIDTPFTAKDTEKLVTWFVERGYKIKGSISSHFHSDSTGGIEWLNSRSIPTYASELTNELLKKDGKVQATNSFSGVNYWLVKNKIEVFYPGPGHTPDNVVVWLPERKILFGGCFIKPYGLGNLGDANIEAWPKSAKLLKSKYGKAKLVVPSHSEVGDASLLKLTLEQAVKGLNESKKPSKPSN

**Q.** With `O=C(O)[C@@H](S)[C@@H](S)C(=O)O` [DMSA, meso-dimercaptosuccinic acid] as the molecule, how does the tolerability [1] read?
**A.** Its tolerability is “well tolerated”.

**Q.** What about the “efficacy in mouse peritonitis model” value (MBL-producing E. coli; MBL-producing E. coli) of the same molecule?
**A.** The value was “effective”.

**Q.** And the “tolerability in mouse peritonitis model” value (MBL-producing E. coli)?
**A.** Its value is “well-tolerated”.

**Q.** What about the “effect on carbapenem (IPM and MEM) MICs” value ([2]; DMSA at 3 mM) of the same molecule?
**A.** Its value is “significantly reduce”.

**Q.** What about the “type of interaction with carbapenems” value [2] of the same molecule?
**A.** The value was “additive”.

**Q.** What about the IC50 (IMP-10) of the same molecule?
**A.** The IC50 was 50 µM.

**Q.** What about the IC50 (IMP-13) of the same molecule?
**A.** Its IC50 is 350 µM.

**Q.** And the IC50 (NDM-1)?
**A.** The IC50 was greater than 1000 µM.

**Q.** And the IC50 (SPM-1)?
**A.** The IC50 was greater than 1000 µM.

**Q.** And the IC50 (VIM-1)?
**A.** Its IC50 is greater than 1000 µM.

**Q.** What about the IC50 (VIM-2) of the same molecule?
**A.** The IC50 was greater than 1000 µM.

**Q.** With `CC(C)(O/N=C(\C(=O)N[C@@H]1C(=O)N2C(C(=O)[O-])=C(C[n+]3ccccc3)CS[C@H]12)c1csc(N)n1)C(=O)O` [CAZ, ceftazidime] as the molecule, how does the MIC [3] read?
**A.** Its MIC is 1020 µg/mL.

**Q.** What about the MIC [4] of the same molecule?
**A.** Its MIC is 4100 µg/mL.

**Q.** And the MIC [5]?
**A.** Its MIC is 2050 µg/mL.

**Q.** And the MIC (PAO1 producing IMP-10)?
**A.** Its MIC is 2050 µg/mL.

**Q.** And the MIC (PAO1 producing NDM-1)?
**A.** The MIC was 4100 µg/mL.

**Q.** And the MIC [6]?
**A.** The MIC was 2050 µg/mL.

**Q.** And the MIC [7]?
**A.** The MIC was 64 µg/mL.

**Q.** What about the MIC [8] of the same molecule?
**A.** The MIC was 512 µg/mL.

**Q.** What about the MIC [9] of the same molecule?
**A.** Its MIC is 8 µg/mL.

**Q.** And the MIC (PAO1 producing IMP-13)?
**A.** Its MIC is 64 µg/mL.

**Q.** What about the MIC (PAO1 producing IMP-1) of the same molecule?
**A.** Its MIC is 1020 µg/mL.

**Q.** What about the MIC (PAO1 producing SPM-1) of the same molecule?
**A.** The MIC was 512 µg/mL.

**Q.** What about the MIC (PAO1 producing VIM-1) of the same molecule?
**A.** The MIC was 2050 µg/mL.

**Q.** What about the MIC (PAO1 producing VIM-2) of the same molecule?
**A.** Its MIC is 8 µg/mL.
